Measured values as given in the CheMixHub viscosity set.

Experiment: xn = mol fraction of the nth substance listed
Conditions: 101 kPa

C=CC(=O)OCC + CCOCCOCCO
viscosity [mPa·s]
Conditions	293.15 K	298.15 K	303.15 K	308.15 K	313.15 K	318.15 K
x2 = 0.0707	0.666	0.624	0.587	0.551	0.521	0.499
x2 = 0.1417	0.76	0.708	0.662	0.62	0.582	0.547
x2 = 0.2167	0.879	0.813	0.756	0.704	0.66	0.619
x2 = 0.2803	0.997	0.918	0.85	0.79	0.735	0.686
x2 = 0.3626	1.192	1.075	0.989	0.914	0.847	0.788
x2 = 0.4228	1.335	1.227	1.113	1.024	0.946	0.877
x2 = 0.5004	1.571	1.438	1.305	1.175	1.079	0.995
x2 = 0.5659	1.812	1.628	1.477	1.329	1.214	1.112
x2 = 0.6497	2.136	1.927	1.737	1.563	1.411	1.287
x2 = 0.7196	2.467	2.207	1.956	1.759	1.599	1.459
x2 = 0.791	2.845	2.512	2.233	1.998	1.797	1.627
x2 = 0.869	3.342	2.93	2.558	2.302	2.046	1.857
x2 = 0.9299	3.752	3.274	2.84	2.552	2.258	2.044

Clc1ccccc1 + CN1CCCC1=O
viscosity [mPa·s]
Conditions	x2 = 0.1055	x2 = 0.2097	x2 = 0.3127	x2 = 0.4144	x2 = 0.5149	x2 = 0.6142	x2 = 0.7124	x2 = 0.8094	x2 = 0.9052
303.15 K	0.8395	0.9497	1.057	1.153	1.242	1.322	1.39	1.455	1.508
308.15 K	0.7814	0.8809	0.9724	1.059	1.14	1.207	1.267	1.323	1.366
313.15 K	0.737	0.8284	0.9144	0.9933	1.067	1.132	1.187	1.24	1.282
318.15 K	0.6786	0.7611	0.8372	0.9111	0.9802	1.04	1.093	1.137	1.175
